# Experimental data from patent US12595230B2, “Substituted 6,7-dihydro-5H-benzo[7]annulene compounds and their derivatives, processes for their preparation and therapeutic uses thereof” (Sanofi, priority 2020, dated 2026).
# Target: T1, ERα (Homo sapiens, UniProt P03372)
# T1 construct: host or cells: MCF7
# T1 sequence (P03372 1-595): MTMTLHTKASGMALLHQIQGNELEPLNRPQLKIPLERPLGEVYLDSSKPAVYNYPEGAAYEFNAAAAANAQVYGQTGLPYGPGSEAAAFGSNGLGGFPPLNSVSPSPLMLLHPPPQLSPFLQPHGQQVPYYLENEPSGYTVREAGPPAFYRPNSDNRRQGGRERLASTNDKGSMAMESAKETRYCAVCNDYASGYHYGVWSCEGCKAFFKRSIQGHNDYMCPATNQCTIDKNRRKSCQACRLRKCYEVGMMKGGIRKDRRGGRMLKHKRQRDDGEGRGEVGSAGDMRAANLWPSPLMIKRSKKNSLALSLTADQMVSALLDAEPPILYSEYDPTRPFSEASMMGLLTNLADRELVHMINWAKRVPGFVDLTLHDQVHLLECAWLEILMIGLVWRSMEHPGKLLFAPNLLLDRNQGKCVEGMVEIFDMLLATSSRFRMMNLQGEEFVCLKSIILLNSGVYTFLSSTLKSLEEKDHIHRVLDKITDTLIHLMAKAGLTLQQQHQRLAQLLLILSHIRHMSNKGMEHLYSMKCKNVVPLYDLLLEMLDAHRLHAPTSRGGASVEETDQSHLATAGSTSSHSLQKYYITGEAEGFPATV
# Experiment: Estrogen receptor degradation activity: breast cancer cell ERα in cell western assay (MCF7 cells)
# Format: cell-based
# Settings: for % Degradation At 0.3 μM: 4 hours, relative to fulvestrant 0.1 μM positive control; for DC50 / IC50: 4 hours post compound addition, concentration which degrades 50% of the estrogen receptor; for DC50: read-out: Degradation IC50
# Method in brief: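 Compounds were applied to MCF7 cells in stripped-serum, phenol red-free medium for 4 h at final 0.3–0.0000018 μM, with fulvestrant (0.1 μM) as control. Value: IC50 (nM) for 50% ERα degradation.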
% Degradation At 0.3 μM,DC50,IC50,SMILES
92%,1.1 nM,–,"Cl.O=C(O)c1ccc2c(c1)CCCC(c1ccc(Cl)c(Cl)c1)=C2c1ccc(CC2CN(CCCF)C2)cc1 [Example 207, 8-(3,4-dichlorophenyl)-9-(4-((1-(3-fluoropropyl)azetidin-3-yl)methyl)phenyl)-6,7-dihydro-5H-benzo[7]annulene-3-carboxylic acid hydrochloride]"
86%,2.8 nM,–,"O=C(O)c1ccc2c(c1)CCCC(c1cnccc1C(F)(F)F)=C2c1ccc(CC2CN(CCCF)C2)cc1 [Example 214, 9-(4-((1-(3-fluoropropyl)azetidin-3-yl)methyl)phenyl)-8-(4-(trifluoromethyl)pyridin-3-yl)-6,7-dihydro-5H-benzo[7]annulene-3-carboxylic acid]"
91%,0.2 nM,–,"O=C(O)c1ccc2c(c1)CCCC(c1ccc(Cl)cc1C(F)F)=C2c1ccc(CC2CN(CCCF)C2)cc1 [Example 221, 8-(4-chloro-2-(difluoromethyl)phenyl)-9-(4-((1-(3-fluoropropyl)azetidin-3-yl)methyl)phenyl)-6,7-dihydro-5H-benzo[7]annulene-3-carboxylic acid]"
89%,17.4 nM,–,"FCCCN1CC(Cc2ccc(C3=C(c4ccccc4Cl)CCCc4ccccc43)cc2)C1 [Example 304, 3-(4-(8-(2-chlorophenyl)-6,7-dihydro-5H-benzo[7]annulen-9-yl)benzyl)-1-(3-fluoropropyl)azetidine]"
88%,–,0.1 nM,"O=C(O)c1ccc2c(c1)CCCC(c1cccc(F)c1C(F)(F)F)=C2c1ccc(CC2CN(CCCF)C2)cc1 [Example 232, 8-(3-fluoro-2-(trifluoromethyl)phenyl)-9-(4-((1-(3-fluoropropyl)azetidin-3-yl)methyl)phenyl)-6,7-dihydro-5H-benzo[7]annulene-3-carboxylic acid]"
95%,1.6 nM,–,"O=C(O)c1ccc2c(c1)CCCC(c1ccc(Cl)cc1Cl)=C2c1ccc(C(O)C2CN(CCCF)C2)cc1 (single isomer, unassigned) [Example 41, 8-(2,4-dichlorophenyl)-9-(4-((1-(3-fluoropropyl)azetidin-3-yl)(hydroxy)methyl)phenyl)-6,7-dihydro-5H-benzo[7]annulene-3-carboxylic acid]"
85%,0.4 nM,–,"Cc1c(C2=C(c3ccc(CC4CN(CCCF)C4)cc3)c3ccc(C(=O)O)cc3CCC2C)cccc1C(F)(F)F (racemic) [Example 310, 9-(4-((1-(3-fluoropropyl)azetidin-3-yl)methyl)phenyl)-7-methyl-8-(2-methyl-3-(trifluoromethyl)phenyl)-6,7-dihydro-5H-benzo[7]annulene-3-carboxylic acid]"
89%,2.1 nM,–,"COc1cc(C2=C(c3ccc(CC4CN(CCCF)C4)cc3)c3ccc(C(=O)O)cc3CCC2)ccn1 [Example 21, 9-(4-((1-(3-fluoropropyl)azetidin-3-yl)methyl)phenyl)-8-(2-methoxypyridin-4-yl)-6,7-dihydro-5H-benzo[7]annulene-3-carboxylic acid]"
89%,0.8 nM,–,"O=C(O)c1ccc2c(c1)CCCC(c1cc(F)c(F)c(F)c1)=C2c1ccc(CC2CN(CCCF)C2)cc1 [Example 267, 9-(4-((1-(3-fluoropropyl)azetidin-3-yl)methyl)phenyl)-8-(3,4,5-trifluorophenyl)-6,7-dihydro-5H-benzo[7]annulene-3-carboxylic acid]"
86%,0.4 nM,–,"Cc1c(C2=C(c3ccc(CC4CN(CCC(F)F)C4)cc3)c3ccc(C(=O)O)cc3CCC2)cccc1C(F)(F)F [Example 287, 9-(4-((1-(3,3-difluoropropyl)azetidin-3-yl)methyl)phenyl)-8-(2-methyl-3-(trifluoromethyl)phenyl)-6,7-dihydro-5H-benzo[7]annulene-3-carboxylic acid]"
91%,0.3 nM,–,"Cc1cc(OC(F)F)ccc1C1=C(c2ccc(CC3CN(CCCF)C3)cc2)c2ccc(C(=O)O)cc2CCC1 [Example 20, 8-(4-(difluoromethoxy)-2-methylphenyl)-9-(4-((1-(3-fluoropropyl)azetidin-3-yl)methyl)phenyl)-6,7-dihydro-5H-benzo[7]annulene-3-carboxylic acid]"
93%,0.6 nM,–,"COc1c(F)cccc1C1=C(c2ccc(CC3CN(CCCF)C3)cc2)c2ccc(C(=O)O)cc2CCC1 [Example 335, 8-(3-fluoro-2-methoxyphenyl)-9-(4-((1-(3-fluoropropyl)azetidin-3-yl)methyl)phenyl)-6,7-dihydro-5H-benzo[7]annulene-3-carboxylic acid]"
83%,16.2 nM,–,"COc1c(C(=O)O)ccc2c1CCCC(c1ccc(Cl)cc1Cl)=C2c1ccc(CC2CN(CCCF)C2)cc1 [Example 271, 8-(2,4-dichlorophenyl)-9-(4-((1-(3-fluoropropyl)azetidin-3-yl)methyl)phenyl)-4-methoxy-6,7-dihydro-5H-benzo[7]annulene-3-carboxylic acid]"
89%,0.6 nM,–,"O=C([O-])c1ccc2c(c1)CCCC(c1cc(C(F)F)ccc1F)=C2c1ccc(CC2CN(CCCF)C2)cc1.[Na+] [Example 273, sodium 8-(5-(difluoromethyl)-2-fluorophenyl)-9-(4-((1-(3-fluoropropyl)azetidin-3-yl)methyl)phenyl)-6,7-dihydro-5H-benzo[7]annulene-3-carboxylate]"
80%,110 nM,–,"O=C(O)c1ccc2c(c1)CCCC(c1cccc(CO)c1)=C2c1ccc(CC2CN(CCCF)C2)cc1 [Example 320, 9-(4-((1-(3-fluoropropyl)azetidin-3-yl)methyl)phenyl)-8-(3-(hydroxymethyl)phenyl)-6,7-dihydro-5H-benzo[7]annulene-3-carboxylic acid]"
84%,0.4 nM,–,"O=C(O)c1ccc2c(c1)CCCC(c1ccc(F)cc1F)=C2c1ccc(CC2CN(CCC(F)F)C2)cc1 [Example 281, 8-(2,4-difluorophenyl)-9-(4-((1-(3,3-difluoropropyl)azetidin-3-yl)methyl)phenyl)-6,7-dihydro-5H-benzo[7]annulene-3-carboxylic acid]"
88%,0.3 nM,–,"O=C(O)c1ccc2c(c1)CCCC(c1cccc(C(F)(F)F)c1Cl)=C2c1ccc(CC2CN(CCC(F)F)C2)cc1 [Example 286, 8-(2-chloro-3-(trifluoromethyl)phenyl)-9-(4-((1-(3,3-difluoropropyl)azetidin-3-yl)methyl)phenyl)-6,7-dihydro-5H-benzo[7]annulene-3-carboxylic acid]"
87%,0.6 nM,–,"CC(C)C1CCc2cc(C(=O)O)ccc2C(c2ccc(CC3CN(CCCF)C3)cc2)=C1c1ccc(Cl)cc1Cl (single isomer, unassigned) [Example 322, 8-(2,4-dichlorophenyl)-9-(4-((1-(3-fluoropropyl)azetidin-3-yl)methyl)phenyl)-7-isopropyl-6,7-dihydro-5H-benzo[7]annulene-3-carboxylic acid]"
94%,1.4 nM,–,"O=C(O)c1ccc2c(c1)SCC(c1ccc(Cl)cc1Cl)=C2c1ccc(CC2CN(CCCF)C2)cc1 [Example 308, 3-(2,4-dichlorophenyl)-4-(4-((1-(3-fluoropropyl)azetidin-3-yl)methyl)phenyl)-2H-thiochromene-7-carboxylic acid]"
96%,–,0.1 nM,"Cl.O=C(O)c1ccc2c(c1)CCCC(c1ccc(Cl)c(F)c1Cl)=C2c1ccc(CC2CN(CCCF)C2)cc1 [Example 211, 8-(2,4-dichloro-3-fluorophenyl)-9-(4-((1-(3-fluoropropyl)azetidin-3-yl)methyl)phenyl)-6,7-dihydro-5H-benzo[7]annulene-3-carboxylic acid hydrochloride]"
90%,93.3 nM,–,"COc1c(C(=O)O)ccc2c1CCCC(c1ccc(F)cc1C(F)(F)F)=C2c1ccc(CC2CN(CCCF)C2)cc1.Cl [Example 283, 8-(4-fluoro-2-(trifluoromethyl)phenyl)-9-(4-((1-(3-fluoropropyl)azetidin-3-yl)methyl)phenyl)-4-methoxy-6,7-dihydro-5H-benzo[7]annulene-3-carboxylic acid hydrochloride]"
100%,0.4 nM,–,"CC(O)(c1ccc(C2=C(c3ccc(Cl)cc3Cl)CCCc3cc(C(=O)O)ccc32)cc1)C1CN(CCCF)C1.Cl (single isomer, unassigned; isomer 2) [Example 236, 8-(2,4-dichlorophenyl)-9-(4-(1-(1-(3-fluoropropyl)azetidin-3-yl)-1-hydroxyethyl)phenyl)-6,7-dihydro-5H-benzo[7]annulene-3-carboxylic Acid, Hydrochloride Isomer 2]"
